# Entries after “also recorded” stand apart in the source; their conditions may differ.
# Test system: patients with Friedreich ataxia
# Assay: Phase I-II open pilot trial: ICARS, Perdue Pegboard and parents' observations (patients kept on idebenone)
# Type: in vivo, human
# Settings: for Perdue pegboard: number of nails inserted
# Excerpt: Ten adolescents (four males, six females aged 14 to 23 yrs) with a diagnosis of Friedreich ataxia, confirmed by detection of a trinucleotide-repeat expansion in the first intron of the frataxin gene, were studied. Patients received deferiprone (Ferriprox™, Apotex Inc., Toronto, Canada) orally, in two doses for 1-5 months. Three patients were included, sequentially, for a minimum period of two months at each dose. Patient enrollment was staggered by two-weeks to enable monitoring of response. In the absence of toxicity, and with evidence of efficacy in any of the first 3 patients, a second group of 3 patients would be included at the same dose for a total duration of 6 months. If there was an absence of both efficacy and toxicity, the second group of three patients would be administered a higher dose. If toxicity developed, the current dose would be suspended and the trial resumed with the next group of patients at a lower dose. The patients were on idebenone (10 mg/kg/day, in three doses) for at least two years prior to inclusion and were kept on the drug at the same dose for the duration of the trial. MRI examinations were done at inclusion and at 1, 2, 4 and 6 months. The protocol was promoted by Assistance Publique-Hopitaux de Paris and approved by the local ethical committee and registered at the National Health Authority (AFSSAPS) and at the International Protocol Registration System (www.clinicaltrials.gov). A written informed consent was obtained from patients and parents.
# The International Cooperative Ataxia Rating Score (ICARS) was used to assess the symptoms of ataxia before and after 1-5 months (Cano et al. International cooperative ataxia rating scale (ICARS): Appropriate for studies of Friedreich's ataxia? Mov Disord 2005; 20:1585-91). This scale has four subscales: posture and gait disturbance, kinetic functions, speech disorders and oculomotor disorders. Subscale scores are summed to give a total score ranging from 0 to 100. High scores indicated worse ataxia. The Perdue Pegboard test, which assesses speed of performance, delicate movements and manipulative dexterity, was included in the course of the study. This test assesses the ability of the participant to insert as many nails as possible into preset holes, linearly dug in a wooden board in a limited space of time (20 seconds with the two hands, separately and together). The tests were administered by the same investigator. Patients were monitored for neutropenia, agranulocytosis, musculoskeletal pains and zinc deficiency and had weekly blood counts, plasma iron, serum ferritin and transferrin concentration measurements, as well as assessments of renal and liver function.
# [1] = patient eight, DFP 20 mg/kg, 4 mth, after trial
# [2] = patient eight, DFP 20 mg/kg, 4 mth, prior to trial
# [3] = patient five, DFP 30 mg/kg, 1 mth, after trial
# [4] = patient five, DFP 30 mg/kg, 1 mth, prior to trial
# [5] = patient four, DFP 20 mg/kg, 2 mth, after trial
# [6] = patient four, DFP 20 mg/kg, 2 mth, prior to trial
# [7] = patient one, DFP 20 mg/kg, 5 mth, after trial
# [8] = patient one, DFP 20 mg/kg, 5 mth, prior to trial
# [9] = patient six, DFP 30 mg/kg, 1 mth, after trial
# [10] = patient six, DFP 30 mg/kg, 1 mth, prior to trial
# [11] = patient three, DFP 20 mg/kg, 2 mth, after trial
# [12] = patient three, DFP 20 mg/kg, 2 mth, prior to trial
# [13] = patient two, DFP 20 mg/kg, 3 mth, after trial
# [14] = patient two, DFP 20 mg/kg, 3 mth, prior to trial
smiles,measurement,setting,value
"Cc1c(O)c(=O)ccn1C [Deferiprone, 3-hydroxy-1,2-dimethylpyridin-4-one]","time to disappearance of constipation, incontinence and some subjective signs of peripheral neuropathy",20 mg/kg/day oral,1-2 months
same,neurological condition noted by parents and uninformed relatives,"20 mg/kg/day oral, within a few weeks, all treated patients",unexpected neurological improvement
same,changes of the ICARS scores,"20 mg/kg/day, short period of the trial",mild changes of the ICARS scores
same,Perdue Pegboard test: speed of performances and dexterity,"30 mg/kg/day oral, before and 1-2 months after onset",improvement of speed of performances and dexterity
same,Kinetic function (/29),[1],7
same,Oculomotor disorder (/6),[1],2
same,Posture and gait disturbance: 7 items (/34),[1],9
same,Posture and gait disturbance: gait speed,[1],1
same,Posture and gait disturbance: spread feet,[1],3
same,Posture and gait disturbance: standing eyes open,[1],1
same,Posture and gait disturbance: walking,[1],2
same,Speech disorder (/8),[1],2
same,Total ICARS (/100),[1],20
same,Observation,"patient eight, DFP 20 mg/kg, 4 mth, listed as DFP","no more incontinence, improved gait and balance, warming; also recorded: up of feet"
same,Kinetic function (/29),[2],7
same,Oculomotor disorder (/6),[2],2
same,Posture and gait disturbance: 7 items (/34),[2],12
same,Posture and gait disturbance: gait speed,[2],1
same,Posture and gait disturbance: spread feet,[2],3
same,Posture and gait disturbance: standing eyes open,[2],2
same,Posture and gait disturbance: walking,[2],3
same,Speech disorder (/8),[2],2
same,Total ICARS (/100),[2],23
same,Kinetic function (/29),[3],8
same,Oculomotor disorder (/6),[3],2
same,Posture and gait disturbance: 7 items (/34),[3],8
same,Posture and gait disturbance: gait speed,[3],2
same,Posture and gait disturbance: spread feet,[3],0
same,Posture and gait disturbance: standing eyes open,[3],1
same,Posture and gait disturbance: walking,[3],2
same,Speech disorder (/8),[3],2
same,Total ICARS (/100),[3],20
same,Observation,"patient five, DFP 30 mg/kg, 1 mth, listed as DFP","no more constipation, incontinence and bending, improved; also recorded: balance and gait"
same,Kinetic function (/29),[4],8
same,Oculomotor disorder (/6),[4],2
same,Posture and gait disturbance: 7 items (/34),[4],11
same,Posture and gait disturbance: gait speed,[4],2
same,Posture and gait disturbance: spread feet,[4],1
same,Posture and gait disturbance: standing eyes open,[4],2
same,Posture and gait disturbance: walking,[4],2
same,Speech disorder (/8),[4],2
same,Total ICARS (/100),[4],23
same,Kinetic function (/29),[5],12
same,Oculomotor disorder (/6),[5],0
same,Posture and gait disturbance: 7 items (/34),[5],13
same,Posture and gait disturbance: gait speed,[5],1
same,Posture and gait disturbance: spread feet,[5],2
same,Posture and gait disturbance: standing eyes open,[5],1
same,Posture and gait disturbance: walking,[5],3
same,Speech disorder (/8),[5],2
same,Total ICARS (/100),[5],27
same,Perdue pegboard,[5],29
same,Perdue pegboard,[6],37
same,Kinetic function (/29),[6],13
same,Oculomotor disorder (/6),[6],0
same,Posture and gait disturbance: 7 items (/34),[6],16
same,Posture and gait disturbance: gait speed,[6],1
same,Posture and gait disturbance: spread feet,[6],2
same,Posture and gait disturbance: standing eyes open,[6],3
same,Posture and gait disturbance: walking,[6],3
same,Speech disorder (/8),[6],2
same,Total ICARS (/100),[6],31
same,Kinetic function (/29),[7],7
same,Oculomotor disorder (/6),[7],2
same,Posture and gait disturbance: 7 items (/34),[7],27
same,Posture and gait disturbance: gait speed,[7],3
same,Posture and gait disturbance: spread feet,[7],2
same,Posture and gait disturbance: standing eyes open,[7],4
same,Posture and gait disturbance: walking,[7],7
same,Speech disorder (/8),[7],0
same,Total ICARS (/100),[7],37
same,Observation,"patient one, DFP 20 mg/kg, 5 mth, listed as DFP","improved gait, writing, delicate movements, can move them; also recorded: toes, feels their feet, warming up of feet"
same,Kinetic function (/29),[8],8
same,Oculomotor disorder (/6),[8],2
same,Posture and gait disturbance: 7 items (/34),[8],28
same,Posture and gait disturbance: gait speed,[8],3
same,Posture and gait disturbance: spread feet,[8],3
same,Posture and gait disturbance: standing eyes open,[8],4
same,Posture and gait disturbance: walking,[8],7
same,Speech disorder (/8),[8],1
same,Total ICARS (/100),[8],39
same,Observation,"patient seven, DFP 20 mg/kg, 5 mth, listed as DFP","improved gait, writing, delicate movements, can move them; also recorded: toes, feels their feet, warming up of feet"
same,Observation,"patient six, DFP 30 mg/kg, 1 mth","improved gait and standing, no more constipation"
same,Kinetic function (/29),[9],9
same,Oculomotor disorder (/6),[9],0
same,Posture and gait disturbance: 7 items (/34),[9],17
same,Posture and gait disturbance: gait speed,[9],1
same,Posture and gait disturbance: spread feet,[9],2
same,Posture and gait disturbance: standing eyes open,[9],2
same,Posture and gait disturbance: walking,[9],7
same,Speech disorder (/8),[9],0
same,Total ICARS (/100),[9],26
same,Perdue pegboard,[9],39
same,Perdue pegboard,[10],52
same,Kinetic function (/29),[10],9
same,Oculomotor disorder (/6),[10],0
same,Posture and gait disturbance: 7 items (/34),[10],20
same,Posture and gait disturbance: gait speed,[10],1
same,Posture and gait disturbance: spread feet,[10],2
same,Posture and gait disturbance: standing eyes open,[10],3
same,Posture and gait disturbance: walking,[10],7
same,Speech disorder (/8),[10],0
same,Total ICARS (/100),[10],29
same,Kinetic function (/29),[11],11
same,Oculomotor disorder (/6),[11],0
same,Posture and gait disturbance: 7 items (/34),[11],16
same,Posture and gait disturbance: gait speed,[11],2
same,Posture and gait disturbance: spread feet,[11],3
same,Posture and gait disturbance: standing eyes open,[11],4
same,Posture and gait disturbance: walking,[11],7
same,Speech disorder (/8),[11],2
same,Total ICARS (/100),[11],29
same,Perdue pegboard,[11],44
same,Perdue pegboard,[12],37
same,Kinetic function (/29),[12],11
same,Oculomotor disorder (/6),[12],0
same,Posture and gait disturbance: 7 items (/34),[12],17
same,Posture and gait disturbance: gait speed,[12],2
same,Posture and gait disturbance: spread feet,[12],3
same,Posture and gait disturbance: standing eyes open,[12],5
same,Posture and gait disturbance: walking,[12],7
same,Speech disorder (/8),[12],3
same,Total ICARS (/100),[12],31
same,Observation,"patient two, DFP 20 mg/kg, 3 mth","no more fatigue, improved delicate movements"
same,Kinetic function (/29),[13],21
same,Oculomotor disorder (/6),[13],2
same,Posture and gait disturbance: 7 items (/34),[13],32
same,Posture and gait disturbance: gait speed,[13],4
same,Posture and gait disturbance: spread feet,[13],4
same,Posture and gait disturbance: standing eyes open,[13],6
same,Posture and gait disturbance: walking,[13],7
same,Speech disorder (/8),[13],4
same,Total ICARS (/100),[13],59
same,Kinetic function (/29),[14],21
same,Oculomotor disorder (/6),[14],3
same,Posture and gait disturbance: 7 items (/34),[14],33
same,Posture and gait disturbance: gait speed,[14],4
same,Posture and gait disturbance: spread feet,[14],4
same,Posture and gait disturbance: standing eyes open,[14],6
same,Posture and gait disturbance: walking,[14],7
same,Speech disorder (/8),[14],4
same,Total ICARS (/100),[14],61

# Source: patent publication US20090023784A1, “USE OF DEFERIPRONE AND METHODS TO TREAT AND/OR PREVENT FRIEDREICH ATAXIA RESULTING FROM INTRACELLULAR MISHANDLING OF IRON” (priority 2006, published 2009)
